Reference: patent EP2698384A1, “Detection of synthetic cannabinoids” (priority 2012, dated 2014)

Experiments:
Type in all cases: binding, sheep
Settings in all cases: Cross-reactants at 100 ng/ml; 1000ng/ml; single level of cross reactants
Antibody to Immunogen V = system: Antibody to Immunogen V
Protocol: (§1) The wells of an enhanced binding 96 well polystyrene microtiter plate were coated with IgG fraction of antiserum raised to Immunogen VI, diluted in 10mM Tris, pH8.5 (125µl/well). The appropriate antibody coating dilution was determined using standard ELISA checkerboard techniques. The plate was incubated overnight at 4°C, washed 4 times over 10 minutes with Tris buffered saline containing Tween 20 (TBST) and tapped dry. Standard solutions of RCS-4 were prepared in TBST at 0, 0.3125, 0.625, 1.25, 2.5, 5, 10 and 20ng/ml, and 50µl of each was added to the appropriate wells (see figure 1). 75µl of conjugate (appropriate hapten-HRP) diluted in Tris buffer (pH 7.2) containing EDTA, D-mannitol, sucrose, thimerosal and BSA, was added to each of the wells. The appropriate dilution of conjugate was also determined using standard ELISA checkerboard techniques. The plate was incubated at 25°C for 1 hour. Excess unbound conjugate was removed by washing 6 times over a 10 minute period with TBST. 125µl oftetramethylbenzidine (TMB) substrate solution was added to each well of the plate that was then incubated for 20 minutes in the dark at room temperature. The reaction was terminated by addition of 125µl 0.2M H2SO4 to each well. The absorbance was then measured at 450nm using a microtiter plate reader. The data are inputted to a computer program called 'KC Junior'. It is a 4 parameter fit curve and allow the calculatation of concentrations between the standard runs. This program is used to calculate the IC50s by dividing the 0ng/ml OD value by 2 and obtaining the concentration value from the curve for this OD.
In a similar manner to that described above, the wells of a 96-well microtiter plate were coated with the IgG fraction of the antiserum raised to Immunogens IV, V, VII or VIII. Standard solutions (RCS-8 for Immunogen V) were prepared in TBST at 0, 1.25, 2.5, 5, 10, 20, 40 and 80ng/ml and conjugate was employed as detection reagent.
(§2) The data set our in Tables 3 and 4 are generated using antibodies raised against the indicated Immunogens in a competitive binding assay with the indicated tracers, using the indicated standards: Table 2
(§3) In order to determine the specificity of the competitive ELISAs, standard solutions of a range of structurally similar synthetic cannabinoids and their metabolites were prepared in TBST. Using the calibration curves generated and employing a single level of cross reactants, these were used to determine the cross-reactivity of each immunoassay with these substances. Table 4: Cross reactivity of the competitive ELISAs for synthetic cannabinoids and their metabolites

Antibody to Immunogen VI = system: Antibody to Immunogen VI
Protocol: as §1, §2, §3

[1] = system: Antibody to Immunogen III
Protocol: as §1
In a similar manner to that described above, the wells of a 96-well microtiter plate were coated with the IgG fraction of the antiserum raised to Immunogens I, II or III. Standard solutions (JWH-250 for Immunogen III) were applied at 0, 0.625, 1.25, 2.5, 5, 10, 20 and 40ng/ml and conjugate was employed as detection reagent.
as §2, §3

Structure (SMILES)	%B/B0 (Antibody to Immunogen V) [%]	%B/B0 (Antibody to Immunogen VI) [%]	%B/B0 [1] [%]
CCCCCn1c(O)c(C(=O)c2cccc3ccccc23)c2ccccc21	98.82	101.92	97.61
CCCCn1c(O)c(C(=O)c2cccc3ccccc23)c2ccccc21	91.80	89.23	97.53
CCCCCn1cc(C(=O)c2cccc3ccccc23)c2c(O)cccc21	83.42	92.00	82.22
CCCCn1cc(C(=O)c2cccc3ccccc23)c2c(O)cccc21	76.09	84.39	84.57
CCCCCn1cc(C(=O)c2cccc3ccccc23)c2cc(O)ccc21	88.70	95.94	96.24
CCCCn1cc(C(=O)c2cccc3ccccc23)c2cc(O)ccc21	82.86	85.96	95.65
CCCCCn1cc(C(=O)c2cccc3ccccc23)c2ccc(O)cc21	75.65	91.26	92.91
CCCCn1cc(C(=O)c2cccc3ccccc23)c2ccc(O)cc21	68.70	84.50	94.60
CCCCCn1cc(C(=O)c2cccc3ccccc23)c2cccc(O)c21	80.99	91.71	97.89
CCCCn1cc(C(=O)c2cccc3ccccc23)c2cccc(O)c21	73.04	81.62	95.81
CCCCCCCC(C)(C)c1ccc(C2CCCC(O)C2)c(O)c1 (stereo not drawn)	86.41	100.84	95.39
CCCCCCn1cc(C(=O)c2cccc3ccccc23)c2cc(O)ccc21	79.13	89.29	95.38
CCCCn1cc(C(=O)c2ccc(OC)cc2)c2ccccc21	76.87	4.40	62.80
CC(O)CCCn1cc(C(=O)c2cccc3ccccc23)c2ccccc21 (racemic)	75.59	76.16	86.69
CCCCCCC(C)(C)c1ccc([C@@H]2C[C@H](O)CC[C@H]2CCCO)c(O)c1 (racemic) [((+-)-CP 55,940)]	80.97	98.86	93.49
CCCCCCC(C)(C)c1ccc([C@H]2CCC[C@@H](O)C2)c(O)c1 (racemic) [CP-49,497-C7 ((+-) CP 47,497)]	69.53	95.90	96.91
CC(F)CCCn1cc(C(=O)c2cccc3ccccc23)c2ccccc21 (single isomer, unassigned) [AM-2201 N-(4-fluoropentyl) isomer]	52.90	71.98	68.00
CC(C)C(C)n1cc(C(=O)c2cccc3ccccc23)c2ccccc21 (single isomer, unassigned) [JWH 018 N-(1,2-dimethylpropyl) isomer]	74.41	83.71	90.17
CCCC(C)n1cc(C(=O)c2cccc3ccccc23)c2ccccc21 (single isomer, unassigned) [JWH-018 N-(1-methylbutyl) isomer]	76.65	85.57	87.31
CCC(C)Cn1cc(C(=O)c2cccc3ccccc23)c2ccccc21 (single isomer, unassigned) [JWH-018 N-(2-methylbutyl) isomer (JWH-073 2-methylbutyl homologue)]	69.13	80.10	92.91
O=C(O)Cc1c[nH]c2ccc(O)cc12 [5-hydroxyindole-3-acetic acid (5-HIAA), 5-hydroxyindole-3-acetic acid]	92.46	95.75	90.54
OCCc1c[nH]c2ccc(O)cc12 [5-hydroxytryptophol]	90.61	95.67	85.39

Structure (SMILES)	%B/B0 (Antibody to Immunogen V) [%]	%B/B0 (Antibody to Immunogen VI) [%]	%B/B0 [1] [%]
CS(=O)(=O)O.Cc1c(C(=O)c2cccc3ccccc23)c2cccc3c2n1[C@H](CN1CCOCC1)CO3 [(+)WIN 55212-2 (mesylate)]	68.43	91.65	93.28
CN1CCCCC1Cn1cc(C(=O)c2ccccc2I)c2ccccc21 (stereo not drawn) [AM-223]	54.35	79.16	95.28
COc1ccc(C(=O)c2c(C)n(CCN3CCOCC3)c3cc(I)ccc23)cc1 [AM-630 (other name 6-Iodopravadoline), 6-Iodopravadoline]	71.78	39.25	91.34
O=C(c1cccc(I)c1)c1cn(CCCCCF)c2ccccc12 [AM-694 3-iodo isomer]	63.18	44.38	67.86
O=C(c1ccc(I)cc1)c1cn(CCCCCF)c2ccccc12 [AM-694 4-iodo isomer]	77.65	16.99	65.53
O=C(c1ccccc1I)c1cn(CCCCCF)c2ccccc12 [AM-694]	64.61	70.77	72.80
CN1CCCCC1Cn1cc(C(=O)c2cccc3ccccc23)c2ccccc21 (stereo not drawn) [AM-1220]	63.74	81.44	99.70
CN1CCCCC1Cn1cc(C(=O)c2cc([N+](=O)[O-])ccc2I)c2ccccc21 (stereo not drawn) [AM-1241]	71.68	99.43	102.11
O=C(c1cccc2ccccc12)c1cn(CCCC(O)CF)c2ccccc12 (stereo not drawn) [AM-2201 N-(4-hydroxypentyl) metabolite]	50.40	77.68	68.76
O=C(c1cccc2ccccc12)c1cn(CCCCCF)c2ccccc12 [AM-2201]	76.07	76.96	67.95
CCCCCCC(C)(C)C1=CC(=O)C(C2CCCC(O)C2)=CC1=O (stereo not drawn) [CP-47,497-para-quinone analogue]	72.98	94.38	96.58
CCCCCc1cc(O)c2c(c1)OC(C)(C)c1ccc(C)cc1-2 [Cannabinol]	64.54	95.90	97.02
CCCCCc1cc(O)c2c(c1)OC(C)(C)[C@@H]1CCC(C)=C[C@@H]21 [Delta 9 THC]	65.28	94.84	91.21
CCCCCCC(C)(C)c1cc(O)c2c(c1)OC(C)(C)[C@@H]1CC=C(CO)C[C@@H]21 [HU-210]	67.43	90.89	91.13
CCCCCCC(C)(C)c1cc(O)c2c(c1)OC(C)(C)[C@H]1CC=C(CO)C[C@H]21 [HU-211 (Dexanabinol), Dexanabinol]	71.68	98.97	95.96
CCCCCCC(C)(C)c1cc(OC)c([C@@H]2C=C(CO)[C@@H]3C[C@H]2C3(C)C)c(OC)c1 [HU-308]	71.33	97.34	96.26
O=C(O)c1c[nH]c2ccccc12 [Indole-3-carboxylic Acid]	64.69	95.41	91.19
CCCCCn1cc(C(=O)c2ccc3ccccc3c2)c2ccccc21 [JWH 018 2'-naphthyl isomer]	88.32	44.48	76.35
CC(C)CCn1cc(C(=O)c2cccc3ccccc23)c2ccccc21 [JWH 018 N-(3-methylbutyl) isomer (JWH-073 3-methylbutyl homologue)]	63.42	66.63	82.58
CCCCCn1cc(C(=O)C23CC4CC(CC(C4)C2)C3)c2ccccc21 [JWH 018 adamantyl analog]	86.65	93.91	84.69
CCCCn1cc(C(=O)c2c(C)ccc3ccccc23)c2ccccc21 [JWH 073 2-methylnaphthyl analog]	77.45	86.98	86.14
